From paper PMC7866972, “Crosstalk of Cancer Signaling Pathways by Cyclic Hexapeptides and Anthraquinones from Rubia cordifolia” (Molecules, 2021)
Converted amounts (≈) assume the structure as drawn. “Also recorded” adds a separate entry of the source. Where two headings read alike, the source gives them in different places.

Key:
Type in all cases: cell-based
FoxO = FoxO luciferase reporter assay (no inducer); settings: for percentage of luciferase induction FoxO: Hela cells, 1µg/ml, 6 h
Experimental: (§1) Hela cells from ATCC were plated in white opaque 384 well plates at a density of 4300 cells/well in 30 µL of a growth medium (DMEM with 10% FBS and 1% Pen/step). The next day, the medium was aspirated and replaced with DMEM containing 10% FBS. The cells were transfected with respective plasmids using the X-tremeGENE HP transfection reagent (Roche). Luciferase vectors used in this assay are summarized in Table S2, Supporting Information. After 24 h of transfection, the test agents were added to the transfected cells, followed 30 min later by an inducing agent (IL-6 for Stat 3, TGF-beta for Smad, m-wnt3a for Wnt and PMA for AP-1, NF-kB, E2F, Myc, ETS, Notch and Hedgehog). No inducer was added for FoXO, miR-21, and […]. After 4 h or 6 h of induction, the cells were lysed by the addition of the One-Glo luciferase assay system (Promega, Madison, WI, USA). The light output was detected in a Glomax Multi+ detection system with the Instinct Software (Promega, Madison, WI, USA). This luciferase assay determines if the test agent was able to inhibit the activation of cancer-related signaling pathways. In the case of FoxO and mi-R21, the enhanced luciferase activity by the test agent was assessed.

Stat3 = Stat3 luciferase reporter assay (IL-6 induced); settings: Homo sapiens; for activity at 1 µg/mL: Hela cells, 4 h, read-out: percentage of luciferase induction Stat3/IL-6
Experimental: as §1

NF-κB = NF-κB luciferase reporter assay (PMA induced); settings: Homo sapiens; for activity at 1 µg/mL: Hela cells, 4 h, read-out: percentage of luciferase induction NF-kB/PMA
Experimental: as §1

Hedgehog = Hedgehog luciferase reporter assay (PMA induced); settings: Homo sapiens; for activity at 1 µg/mL: Hela cells, 6 h, read-out: percentage of luciferase induction Hdghog/PMA
Experimental: as §1

T98G cells = assay: Cytotoxicity assay (WST-8) of SGF/SIF treated and untreated peptide; settings: 48 h, SGF pH 1.2 60 min or SIF pH 7.5 with pancreatin 8 h, 37 °C, unpaired t-test
Experimental: (§2) T98G and MDA-MB 231 cells from ATCC, were plated in clear 384-well plates at an initial density of 1700 cells/well for T98G cells and 2500 cells/well of MDA-MB 231 cells in 40 µL of a growth medium (DMEM with 10% FBS and 1% Pen/step). The next day, the test agents were added at the specified concentration, the treatment continued for 48 h, and the cell viability was finally assessed using the WST-8 assay Cell Counting Kit from Bimake, according to the manufacturer’s instructions. The results were measured by absorbance at 450 nm using the SpectraMax M5 plate reader (Molecular Devices). The cell viability was calculated in comparison to the DMSO control.
(§3) The simulated gastric fluid was prepared as described in the United States Pharmacopoeia (USP, 1995) and consists of 0.2% w/v of NaCl and 0.7% v/v of hydrochloric acid at pH 1.2. Aliquots (48 µL) of SGF were placed in 1.5-mL microcentrifuge tubes and incubated in a water bath at 37 °C [35]. In addition, 2 µL of compound 6 (10 mg/mL in DMSO) was added to each of the SGF vials to start the digestion reaction. The incubation was continued for 60 min and the digestion was stopped with 150 µL of ice-cold cell culture media. The digested samples were used for the cytotoxicity and luciferase assays at different concentrations and the activities were compared between the untreated and SGF treated peptide samples. […]

MDA-MB 231 cells = assay: as above; settings: 48 h, SGF pH 1.2 60 min or SIF pH 7.5 with pancreatin 8 h, 37 °C, unpaired t-test
Experimental: as §2, §3

Ap-1 = assay: AP-1 luciferase reporter assay (PMA induced); settings: for activity at 1 µg/mL: Hela cells, 4 h, read-out: percentage of luciferase induction Ap-1/PMA
Experimental: as §1

Smad = Smad luciferase reporter assay (TGF-beta induced); settings: for percentage of luciferase induction Smad/TGF-b: Hela cells, 1µg/ml, 4 h
Experimental: as §1

E2F = E2F luciferase reporter assay (PMA induced); settings: Homo sapiens; for activity at 1 µg/mL: Hela cells, 4 h, read-out: percentage of luciferase induction E2F/PMA
Experimental: as §1

Ets = Ets luciferase reporter assay (PMA induced); settings: Homo sapiens; for activity at 1 µg/mL: Hela cells, 4 h, read-out: percentage of luciferase induction Ets/PMA
Experimental: as §1

pTK control vector = pTK control vector luciferase assay (minimal thymidine kinase promoter); settings: no inducer; for percentage of luciferase induction pTK: Hela cells, 1µg/ml
Experimental: as §1

[1] = tested on: cancer-related signaling pathways in HeLa cells; assay: Panel of luciferase reporter genes for cancer-related signaling pathways
Experimental: as §1
The simulated gastric fluid was prepared as described in the United States Pharmacopoeia (USP, 1995) and consists of 0.2% w/v of NaCl and 0.7% v/v of hydrochloric acid at pH 1.2. Aliquots (48 µL) of SGF were placed in 1.5-mL microcentrifuge tubes and incubated in a water bath at 37 °C [35]. In addition, 2 µL of compound 6 (10 mg/mL in DMSO) was added to each of the SGF vials to start the digestion reaction. The incubation was continued for 60 min and the digestion was stopped with 150 µL of ice-cold cell culture media. The digested samples were used for the cytotoxicity and luciferase assays at different concentrations and the activities were compared between the untreated and SGF treated peptide samples.

Myc = Myc luciferase reporter assay (PMA induced); settings: Homo sapiens; for activity at 1 µg/mL: Hela cells, 4 h, read-out: percentage of luciferase induction Myc/PMA
Experimental: as §1

Notch = Notch luciferase reporter assay (PMA induced); settings: Homo sapiens; for activity at 1 µg/mL: Hela cells, 6 h, read-out: percentage of luciferase induction Notch/PMA
Experimental: as §1

miR-21 = miR-21 luciferase reporter assay (no inducer); settings: Hela cells, 1µg/ml, 6 h
Experimental: as §1

Wnt = Wnt luciferase reporter assay (m-wnt3a induced); settings: Homo sapiens; for activity at 1 µg/mL: Hela cells, 6 h, read-out: percentage of luciferase induction Wnt/m-wnt 3a
Experimental: as §1

[2] = SGF treated compound (pH 1.2, 37 °C, 60 min)
[3] = HeLa cells, agent added 30 min before PMA, harvested 4 h later, ND = No activity detected

Question: Which results are given for `COc1ccc(C[C@H]2C(=O)N[C@@H](C)C(=O)N(C)[C@H]3Cc4ccc(cc4)Oc4cc(ccc4O)C[C@@H](C(=O)N[C@H](C)C(=O)N[C@@H](C)C(=O)N2C)N(C)C3=O)cc1` [Compound 6, deoxybouvardin]?
Answer: percentage of luciferase induction FoxO (FoxO; [2]): 68%; percentage of luciferase induction FoxO (FoxO; untreated compound): 51%; IC50 (FoxO; Homo sapiens, HeLa cells, harvested 6 h later, ND = No activity detected): 0.1 µg/mL (≈ 0.132 µM); IC50 (Stat3; HeLa cells, agent added 30 min before IL-6, harvested 4 h later, ND = No activity detected): 0.18 µg/mL (≈ 0.238 µM); activity at 1 µg/mL (Stat3; [2]): -4%; activity at 1 µg/mL (Stat3; untreated compound): -4%; IC50 (NF-κB; [3]): 0.17 µg/mL (≈ 0.225 µM); activity at 1 µg/mL (NF-κB; [2]): 34%; activity at 1 µg/mL (NF-κB; untreated compound): 33%; IC50 (Hedgehog; HeLa cells, agent added 30 min before PMA, harvested 6 h later, ND = No activity detected, read-out: IC50 Hdghog/PMA): 0.2 µg/mL (≈ 0.264 µM); activity at 1 µg/mL (Hedgehog; [2]): 5%; activity at 1 µg/mL (Hedgehog; untreated compound): 1%; activity (cell viability) of SGF or SIF treated compared to untreated compound (T98G cells): remained the same before and after the treatment; also recorded: non-significant; activity (cell viability) of SGF or SIF treated compared to untreated compound (MDA-MB 231 cells): remained the same before and after the treatment; also recorded: non-significant; IC50 (Ap-1; [3]): 0.22 µg/mL (≈ 0.291 µM); activity at 1 µg/mL (Ap-1; [2]): 43%; activity at 1 µg/mL (Ap-1; untreated compound): 48%; percentage of luciferase induction Smad/TGF-b (Smad; [2]): 41%; percentage of luciferase induction Smad/TGF-b (Smad; untreated compound): 33%; IC50 (Smad; Homo sapiens, HeLa cells, agent added 30 min before TGF-beta, harvested 4 h later, ND = No activity detected): 0.3 µg/mL (≈ 0.396 µM); IC50 (E2F; [3]): 0.36 µg/mL (≈ 0.476 µM); activity at 1 µg/mL (E2F; [2]): 8%; activity at 1 µg/mL (E2F; untreated compound): 82%; IC50 (Ets; [3]): 0.18 µg/mL (≈ 0.238 µM); activity at 1 µg/mL (Ets; [2]): 58%; activity at 1 µg/mL (Ets; untreated compound): 60%; percentage of luciferase induction pTK (pTK control vector; [2]): 48%; percentage of luciferase induction pTK (pTK control vector; untreated compound): 50%; IC50 (pTK control vector; Homo sapiens, HeLa cells, ND = No activity detected): 0.9 µg/mL (≈ 1.19 µM); activity of SGF treated peptide across the panel of cancer signaling pathways compared to untreated peptide ([1]; Hela cells, SGF treated, Table S1): comparable to the untreated peptide; IC50 ([1]; Homo sapiens, HeLa cells, summary statement on Table 1, read-out: IC50 values for several pathways across the panel): < 0.5 µg/mL; IC50 (Myc; [3]): 0.075 µg/mL (≈ 0.0991 µM); activity at 1 µg/mL (Myc; [2]): 20%; activity at 1 µg/mL (Myc; untreated compound): -8%; IC50 (Notch; HeLa cells, agent added 30 min before PMA, harvested 6 h later, ND = No activity detected): 0.093 µg/mL (≈ 0.123 µM); activity at 1 µg/mL (Notch; [2]): 56%; activity at 1 µg/mL (Notch; untreated compound): 65%; percentage of luciferase induction miR21 (miR-21; [2]): 150%; percentage of luciferase induction miR21 (miR-21; untreated compound): 183%; IC50 (Wnt; HeLa cells, agent added 30 min before m-wnt 3a, harvested 6 h later, ND = No activity detected): 0.05 µg/mL (≈ 0.0661 µM); activity at 1 µg/mL (Wnt; [2]): 12%; activity at 1 µg/mL (Wnt; untreated compound): 6%
